Drawing on patent US20240398781A1, “SPIROCYCLIC CYCLIC MODULATORS OF CHOLESTEROL BIOSYNTHESIS AND THEIR USE FOR PROMOTING REMYELINATION” (GENENTECH, INC., priority 2021, published 2024), this text covers Ki and EC50 for 17 compounds.

Test [1] has as its target human emopamil binding protein and human 7-dehydrocholesterol reductase co-expressing cells (hEBP-DHCR7 membrane) (Homo sapiens (Human), UniProt Q15125). The test is described as follows: Radioligand filter binding assay on hEBP-DHCR7 membrane. The following applies: [3H]-(S)-6-(2-Methyl-3-(6-(trifluoromethyl)pyridin-3-yl)propyl)-2-thia-6-azaspiro[3.4]octane 2,2-dioxide radioligand, HEK293 membrane co-expressing hEBP and hDHCR7. The method, then:
Membrane Preparation: human emopamil binding protein and human 7-dehydrocholesterol reductase co-expressing cells were generated by transient transfecting host human embryonic kidney (HEK) 293 cells with 2 DNA constructs containing each protein's coding sequence. Cells were suspension cultured at 37° C. with 5% CO2 in […] 293 Expression Medium (Thermofisher). Whole cell membrane was prepared by harvesting the cell pellet, adding cold membrane buffer (50 mM Tris, pH7.5, lx Roche COMPLETE EDTA-free protease inhibitor cocktail) 10 times volume of the cell pellets weight, lysing cell pellet on ice by using Dounce homogenizer, spinning at 200 g 4° C. for 15 min, collecting supernatant and spinning again at 25000 g 4° C. for 50 min, transferring pellet to Dounce homogenizer, re-suspending pellet by homogenizing in membrane buffer on ice to reach ˜25 mg/mL, then keeping whole cell membrane aliquots at −80° C.
Compounds were prepared in a 96-well U bottom plate using an Echo550 machine and 10 mM compound DMSO stock solution, followed by an 8-dose 5-fold serial dilutions protocol with final testing compound concentration ranging from 0.06 to 5000 nM, with DMSO back fill to 100 nL/well and n=2. […] The UniFilter-96 GF/B plates were pre-treated by adding 50 μl/well of 0.3% (v/v) PEI to UniFilter-96 GF/B plates. The plates were sealed and incubated at 4° C. for 3 hrs. Then, the plates were washed with ice-cold assay buffer 3 times. The radioligand binding assay was prepared by adding assay buffer diluted hEBP-DHCR7 membrane at 66.7 μg/ml×150 μl/well into the 96-well compound plate to reach 10 μg membrane per well. Then, the assay buffer diluted [3H]—(S)-6-(2-Methyl-3-(6-(trifluoromethyl)pyridin-3-yl)propyl)-2-thia-6-azaspiro[3.4] octane 2,2-dioxide was added at 25 nM×50 μl/well. Following this, the plate was centrifuged at 1000 rpm for 30 secs. The plate was then sealed and agitated at 600 rpm at 22° C. for 5 min, and then incubated at 22° C. for 3 hrs. The incubation was stopped by transferring the binding solution to the pre-treated UniFilter-96 GF/B plate, vacuum filtrated, and then washed four times with ice-cold assay buffer. Following this, the plates were dried at 37° C. for 45 min. The plates were then sealed at the bottom. 40 μl/well of scintillation cocktail was added to the plates. A MicroBeta2 microplate counter was then used to read the plate and analyze the data. For reference and test compounds, the results are expressed as % Inhibition, using the normalization equation: N=100−100×(U−C2)/(C1−C2), where U is the unknown value, C1 is the average of high controls, and C2 is the average value of low controls. The IC50 was determined by fitting percentage of inhibition as a function of compound concentrations with Hill equation using XLfit. Results are expressed as hEBP-DHCR7 Ki (uM) in Table 4. Ki was calculated as described above. The asterix (*) indicates an isolated isomer or isolated group of isomers, but that the stereochemistry has not been assigned.

For test [2], the system named is EBP (zymostenol accumulation in EpiSC-derived OPCs). In words: GC/MS-based sterol profiling, zymostenol accumulation in OPCs. To be noted: Mus musculus, 24 h, EpiSC-derived OPCs, 24 hr treatment, 8 doses from 0.15 nM to 333 nM; read-out: Zymostenol GCMS EC50. It is filed as cell-based, mouse. The protocol:
To assess effects of treatments on OPCs, all treatments were assayed in two or more independent platings of epiblast stem cell-derived OPCs ([…]-derived OPCs were obtained using in vitro differentiation protocols and culture conditions described previously (Najm et al, 2011, Nature Methods). OPCs were expanded and frozen down in aliquots. OPCs were thawed into growth conditions for at least one passage before use in further assays. Sterols were monitored using a modified Folch wash protocol (Hubler et al, 2018, Nature). EpiSC-derived OPCs were plated at 100,000 cells per well in PO- and laminin-coated 96-well plates in N2B27 media without growth factors. After 24 hours, cells were rinsed with saline and plates were frozen. Cholesterol-d7 standard was then added to each well before drying under nitrogen stream and derivatization with 55 μl of bis(trimethylsilyl) trifluoroacetamide. After derivatization, 2 μl were analyzed by gas chromatography/mass spectrometry using an Agilent 5973 Network Mass Selective Detector equipped with a 6890 gas chromatograph system and a HP-5MS capillary column (30 m×0.25 mm×0.25 mm). Samples were analyzed in full scan mode using electron impact ionization; ion fragment peaks were integrated to calculate sterol abundance, and quantitation was relative to cholesterol-d7. […] All standards were obtained from Avanti Polar Lipids unless otherwise indicated. Calibration curves were generated by injecting varying concentrations of sterol standards and maintaining a fixed amount of cholesterol-D7. For normalized zymostenol accumulation results, the total amount of zymostenol measured after drug treatment was divided by the total amount of zymostenol accumulated after 24 hr treatment with 100 nM positive control reference.

The test system of a further test is EpiSC-derived OPCs. The test is described as follows: In vitro phenotypic screening of OPCs (MBP staining, high-content imaging). It is filed as cell-based, mouse. The following applies: Mus musculus, 72 h, percentage of MBP+ oligodendrocytes, 3 days, 0.5 nM to 1000 nM; read-out: OPC EC50. The protocol: To assess effects of treatments on OPCs, all treatments were assayed in two or more independent platings of epiblast stem cell-derived OPCs (EpiSC). EpiSC-derived OPCs were obtained using in vitro differentiation protocols and culture conditions described previously (Najm et al, 2011, Nature Methods). OPCs were expanded and frozen down in aliquots. OPCs were thawed into growth conditions for at least one passage before use in further assays.
EpiSC-derived OPCs were grown and expanded in poly-L-ornithine (PO) and laminin-coated flasks in N2B27 media (DMEM/F12 (Gibco), N2-MAX (R&D Systems), B-27 (ThermoFisher), and GlutaMax (Gibco)) supplemented with FGF2 ([…], R&D systems, 233-FB-025) and PDGF-AA ([…], R&D systems, 233-AA-050) before harvesting for experiments. The cells were seeded onto poly-L-ornithine or poly-D-lysine coated CellCarrier Ultra plates (PerkinElmer) coated with laminin (Sigma, L2020) at a density of 150,000/cm^2 in N2B27 media without growth factors. For dose-response testing, a 1000× compound stock in dimethyl sulphoxide (DMSO) was added to assay plates, resulting in 8-point dose curves with final concentrations between 1000 nM and 0.5 nM. Positive controls and DMSO vehicle controls were included in each assay plate. Cells were incubated under standard conditions (37° C., 5% CO2) for 3 days and fixed with 4% paraformaldehyde (PFA) in phosphate buffered saline (PBS) for 20 min. Fixed plates were washed with PBS, permeabilized with 0.1% Triton X-100, and blocked with 10% donkey serum (v/v) in PBS for 40 min. Then, cells were labelled with MBP antibodies (Abcam, ab7349; 1:200) for 2 h at room temperature, washed with PBS, and stained with Alexa Fluor conjugated secondary antibodies (1:500) for 45 min. Nuclei were visualized by DAPI staining (Sigma; 1 μg/ml), followed by further PBS washes.
Cells and cell culture plates were imaged on the Operetta High Content Imaging and Analysis system (PerkinElmer). Analysis (PerkinElmer Harmony and Columbus software) began by identifying intact nuclei stained by DAPI. The peri-nuclear region of each cell was then cross-referenced with the mature myelin protein (MBP) stain to identify oligodendrocyte nuclei, and from this the percentage of oligodendrocytes was calculated. EC50 values were calculated using The Levenberg-Marquardt algorithm to fit a Hill equation to dose-response data (0.5 nM to 1000 nM).

Chain of human emopamil binding protein and human 7-dehydrocholesterol reductase co-expressing cells (hEBP-DHCR7 membrane) (Q15125 whole entry): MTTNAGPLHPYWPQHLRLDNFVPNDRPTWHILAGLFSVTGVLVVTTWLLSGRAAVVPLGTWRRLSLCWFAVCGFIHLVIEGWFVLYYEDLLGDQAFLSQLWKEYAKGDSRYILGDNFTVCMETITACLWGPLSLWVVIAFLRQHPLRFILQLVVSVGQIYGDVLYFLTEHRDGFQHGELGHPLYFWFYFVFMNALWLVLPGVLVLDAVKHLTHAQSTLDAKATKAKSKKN

Broadly, the Ki is the equilibrium dissociation constant of an inhibitor or competing ligand from its target. As usually defined, the EC50 is the concentration giving half of the maximal effect. Consider `O=S1(=O)CC2(CCN([C@H]3CC[C@@H](c4nc(-c5cccc(C(F)(F)F)n5)nn4C4CC4)C3)CC2)C1` (single isomer, unassigned) [42A*], for which affinity in test [1] was put at a Ki of 570 nM. Besides, the EC50 was determined as 43 nM in test [2] and 93 nM in the test on EpiSC-derived OPCs.

In turn, `O=S1(=O)CC2(CCN([C@@H]3CC[C@@H](c4nc(-c5cccc(C(F)(F)F)n5)nn4C4CC4)C3)CC2)C1` (single isomer, unassigned) [42B*] came in with a Ki in test [1] of 390 nM. Further, the EC50 was determined as 58 nM in test [2] and 180 nM in the test on EpiSC-derived OPCs.

In the case of `CC(C)n1nc(-c2cccc(C(F)(F)F)n2)cc1[C@@H]1CC[C@@H](N2CCC3(CC2)CS(=O)(=O)C3)C1` (single isomer, unassigned) [46A*], the affinity in test [1], expressed as Ki, was 31 nM. For the same compound, the EC50 amounted to 1.3 nM in test [2] and 2.5 nM in the test with EpiSC-derived OPCs.

`CC(C)n1nc(-c2cccc(C(F)(F)F)n2)cc1[C@@H]1CC[C@H](N2CCC3(CC2)CS(=O)(=O)C3)C1` (single isomer, unassigned) [46B*]: the Ki in test [1] was found to be 35 nM. In addition, the EC50 turned out to be 2.7 nM in test [2] and 4.9 nM in the test on EpiSC-derived OPCs.

`CC(C)n1nc(-c2cccc(C(F)(F)F)n2)cc1[C@H]1CC[C@@H](N2CCC3(CC2)CS(=O)(=O)C3)C1` (single isomer, unassigned) [46C*] came in with an inhibition constant (Ki) in test [1] of 13 nM. The EC50 in test [2] stood at 1.7 nM; in the test on EpiSC-derived OPCs, 5.2 nM.

Regarding `CC(C)n1nc(-c2cccc(C(F)(F)F)n2)cc1[C@H]1CC[C@H](N2CCC3(CC2)CS(=O)(=O)C3)C1` (single isomer, unassigned) [46D*], in test [1], the affinity, expressed as Ki, was 12 nM. The EC50 in test [2] is 1.1 nM; in the test with EpiSC-derived OPCs it was 2.4 nM.

In test [1], `CC(C)n1nc(-c2ccc(C(F)(F)F)cc2)nc1[C@H]1CC[C@H](N2CCC3(C2)CS(=O)(=O)C3)C1` (single isomer, unassigned) [53A*] came in with a Ki of 12 nM. The EC50 in test [2] is 1.2 nM; with EpiSC-derived OPCs, 2.3 nM.

As for `CC(C)n1nc(-c2ccc(C(F)(F)F)cc2)nc1[C@H]1CC[C@@H](N2CCC3(C2)CS(=O)(=O)C3)C1` (single isomer, unassigned) [53B*], the Ki in test [1] was 9.9 nM. Moreover, the half-maximal effective concentration (EC50) turned out to be 0.89 nM in test [2] and 2.4 nM in the test on EpiSC-derived OPCs.

On to `CC(C)n1nc(-c2ccc(C(F)(F)F)cc2)nc1[C@@H]1CC[C@@H](N2CCC3(C2)CS(=O)(=O)C3)C1` (single isomer, unassigned) [53D*], for which, in test [1], the affinity corresponds to a Ki of 96 nM. The EC50 in test [2] was 1 nM; in the test on EpiSC-derived OPCs, 3.3 nM.

Turning to `O=S1(=O)CC[C@@]2(CCCN([C@H]3CC[C@@H](c4ccc(C(F)(F)F)nc4)CC3)C2)C1` (single isomer, unassigned) [71A*], the concentration for a half-maximal effect (EC50) is 6 nM in test [2] and 19 nM in the test with EpiSC-derived OPCs.

As to `CC(C)n1nc(C(F)(F)F)cc1[C@H]1CC[C@@H](N2CCC[C@@]3(CCS(=O)(=O)C3)C2)CC1` (single isomer, unassigned) [91A*], the concentration for a half-maximal effect (EC50) is 3.4 nM in test [2] and 9.4 nM with EpiSC-derived OPCs.

For the compound `O=S1(=O)CC2(CCN([C@H]3CC[C@H](c4ccc(C(F)(F)F)cn4)CC3)C2)C1` [Compound 49, 6-((1r,4r)-4-(5-(Trifluoromethyl)pyridin-2-yl)cyclohexyl)-2-thia-6-azaspiro[3.4]octane 2,2-dioxide], the 50% effective concentration (EC50) in test [2] was 9.9 nM; in the test on EpiSC-derived OPCs it was 15 nM.

Take `O=S1(=O)CC2(CCN([C@H]3CC[C@H](c4ccc(C(F)(F)F)cn4)CC3)CC2)C1` [Compound 50A, 7-((1r,4r)-4-(5-(Trifluoromethyl)pyridin-2-yl)cyclohexyl)-2-thia-7-azaspiro[3.5]nonane 2,2-dioxide]: the EC50 in test [2] came to 26 nM; in the test on EpiSC-derived OPCs, 29 nM.

As to `O=S1(=O)CC2(CCN([C@H]3CC[C@@H](c4ccc(C(F)(F)F)cn4)CC3)CC2)C1` [Compound 50B, 7-((1s,4s)-4-(5-(trifluoromethyl)pyridin-2-yl)cyclohexyl)-2-thia-7-azaspiro[3.5]nonane 2,2-dioxide], the concentration giving a half-maximal response (EC50) in test [2] worked out at 32 nM; in the test with EpiSC-derived OPCs it was 45 nM.

Consider `O=S1(=O)CC2(CCN([C@H]3CC[C@H](c4cnc(C(F)(F)F)c(F)c4)CC3)C2)C1` [Compound 72A, 6-((1r,4r)-4-(5-fluoro-6-(trifluoromethyl)pyridin-3-yl)cyclohexyl)-2-thia-6-azaspiro[3.4]octane 2,2-dioxide], for which the EC50 came to 9.4 nM in test [2] and 18 nM in the test on EpiSC-derived OPCs.

Regarding `O=S1(=O)CC2(CCN([C@H]3CC[C@@H](c4ccnc(C(F)(F)F)c4)CC3)CC2)C1` [Compound 90A, 7-((1s,4s)-4-(2-(Trifluoromethyl)pyridin-4-yl)cyclohexyl)-2-thia-7-azaspiro[3.5]nonane 2,2-dioxide], the half-maximal effective concentration (EC50) came out at 31 nM in test [2] and 240 nM in the test on EpiSC-derived OPCs.

With `O=S1(=O)CC2(CCN([C@H]3CC[C@@H](c4ccc(C(F)(F)F)cn4)CC3)C2)C1` [Compound 96, 6-((1s,4s)-4-(5-(Trifluoromethyl)pyridin-2-yl)cyclohexyl)-2-thia-6-azaspiro[3.4]octane 2,2-dioxide], the results for the EC50 (in test [2]; in the test with EpiSC-derived OPCs) were 71 nM and 110 nM, respectively.
